Data on 14 compounds can be found in US20250179028A1, “ACRYLAMIDE COMPOUNDS” (NRG THERAPEUTICS LTD, priority 2022, published 2025).

By IC50 is commonly meant the concentration at which inhibition is half-maximal. One may read the inhibition as the change of the read-out against control, counted positive when it falls.

One data set concerns the target CYP2D6 (Homo sapiens (Human), UniProt P10635). Description: Cytochrome P450 CYP2D6 inhibition in human liver microsomes. It counts as in vitro ADME. The note with it: for IC50 / inhibition at 20 min, 1 µM: human liver microsomes, average value from two experiments; for inhibition at 20 min, 1 µM: probe dextromethorphan 2 µM (dextrorphan formation), 1 uM test compound, negative values = no effective inhibition. In outline: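 Human liver microsomes (0.2 mg/mL) with 2 μM dextromethorphan in 100 mM PBS, test compound at 1 μM or 0.1-30 μM, 15 min preincubation then NADPH-started reaction for 20 min at 37° C, in duplicate. Dextrorphan formation by UPLC-MS/MS; IC50 from % decrease versus uninhibited control.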
For orientation: Liver microsomes are a subcellular fraction often used to study metabolism.

Data set [1] in a line: Hepatocyte clearance assay, human. It is filed as in vitro ADME. The note with it: cryopreserved primary human hepatocytes, average value from two experiments, read-out: Human heps Clint. In outline:
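Cryopreserved rat or human hepatocytes, 0.5×10^6 viable cells/mL in L-15 medium, incubated with compound at 37 °C; samples to 120 min, duplicate. Parent loss by LC/MS/MS; t½ = 0.693/k from ln-linear regression, converted to CLint in μL/min/1×10^6 cells.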

CYP2D6, sequence (P10635 whole entry): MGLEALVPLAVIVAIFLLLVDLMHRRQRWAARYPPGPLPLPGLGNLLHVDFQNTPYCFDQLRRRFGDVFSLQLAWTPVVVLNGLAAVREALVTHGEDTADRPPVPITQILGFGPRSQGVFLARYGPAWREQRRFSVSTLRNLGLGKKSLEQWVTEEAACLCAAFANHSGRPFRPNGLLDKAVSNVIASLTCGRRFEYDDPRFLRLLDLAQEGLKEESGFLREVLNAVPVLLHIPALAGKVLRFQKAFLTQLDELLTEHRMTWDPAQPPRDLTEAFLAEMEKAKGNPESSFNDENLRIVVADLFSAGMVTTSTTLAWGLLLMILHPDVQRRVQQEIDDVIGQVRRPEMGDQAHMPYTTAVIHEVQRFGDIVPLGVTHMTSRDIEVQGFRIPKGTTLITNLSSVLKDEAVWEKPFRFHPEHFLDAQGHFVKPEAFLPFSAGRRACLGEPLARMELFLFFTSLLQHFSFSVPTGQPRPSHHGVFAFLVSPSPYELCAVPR

With `Cc1c(F)cccc1NC(=O)/C=C/c1ccc2cn[nH]c2c1` [Comparative Example 1, (E)-N-(2-methyl-3-fluorophenyl)-3-(1H-indazol-6-yl)acrylamide, reference compound], at CYP2D6, the “inhibition of CYP2D6 (in words)” value is listed as “highly potent inhibitor of CYP2D6”; the midpoint of inhibition, the IC50, lay at 0.074 µM; the inhibition at 20 min, 1 µM was 86.5%. Moreover, in data set [1], the hepatocyte CLint at 1 µM turned out to be 13 µL/min/1e6 cells.

Consider `Cc1c(F)cccc1NC(=O)/C=C/c1ccc2c(c1F)NC(=O)C2` [Example 5, (E)-N-(3-fluoro-2-methylphenyl)-3-(7-fluoro-2-oxoindolin-6-yl)acrylamide], for which the inhibition at 20 min, 1 µM against CYP2D6 is -2.57%.

Consider `Cc1c(F)cccc1NC(=O)/C=C/c1ccc2oc(=O)[nH]c2c1` [Example 6, (E)-N-(3-fluoro-2-methylphenyl)-3-(2-oxo-2,3-dihydrobenzo[d]oxazol-5-yl)acrylamide], for which, at CYP2D6, the IC50 was 19 µM and the inhibition at 20 min, 1 µM was 5.08%. Moreover, the hepatocyte CLint at 1 µM in data set [1] was < 3 µL/min/1e6 cells.

`Cc1c(F)cccc1NC(=O)/C=C/c1ccc2c(c1)[nH]c(=O)n2C` [Example 7, (E)-N-(3-fluoro-2-methylphenyl)-3-(1-methyl-2-oxo-2,3-dihydro-1H-benzo[d]imidazol-5-yl)acrylamide]: at CYP2D6, the 50% inhibitory concentration (IC50) is > 30 µM and the inhibition at 20 min, 1 µM was 2.27%. In addition, the hepatocyte CLint at 1 µM in data set [1] was determined as 7.63 µL/min/1e6 cells.

For the compound `Cc1c(F)cccc1NC(=O)/C=C/c1ccc2c(c1)NC(=O)C2C` (centres unmarked) [Example 8, (E)-N-(3-fluoro-2-methylphenyl)-3-(3-methyl-2-oxoindolin-6-yl)acrylamide], the inhibition at 20 min, 1 µM at CYP2D6 stood at 3.13%.

As for `Cc1c(F)cccc1NC(=O)/C=C/c1ccc2c(c1)NC(=O)C2` [Example 10, (E)-N-(3-fluoro-2-methylphenyl)-3-(2-oxoindolin-6-yl)acrylamide], on CYP2D6, the IC50 is > 30 µM and the inhibition at 20 min, 1 µM was determined as 3.66%. The hepatocyte CLint at 1 µM in data set [1] came out at 3.3 µL/min/1e6 cells.

In the case of `Cc1cccc(C)c1NC(=O)/C=C/c1ccc2c(c1)NC(=O)C2` [Example 19, (E)-N-(2,6-dimethylphenyl)-3-(2-oxoindolin-6-yl)acrylamide], the inhibition at 20 min, 1 µM against CYP2D6 is -3.04%. In addition, in data set [1], the hepatocyte CLint at 1 µM is 4.02 µL/min/1e6 cells.

On to `CCn1c(=O)[nH]c2cc(/C=C/C(=O)Nc3cccc(F)c3C)ccc21` [Example 22, (E)-3-(1-ethyl-2-oxo-2,3-dihydro-1H-benzo[d]imidazol-5-yl)-N-(3-fluoro-2-methylphenyl)acrylamide], for which the inhibition at 20 min, 1 µM on CYP2D6 stood at 2.05%. For the same compound, the hepatocyte CLint at 1 µM in data set [1] came out at 16.2 µL/min/1e6 cells.

`Cc1c(F)cccc1NC(=O)/C=C/c1ccc2c(c1)[nH]c(=O)n2C1CC1` [Example 23, (E)-3-(1-cyclopropyl-2-oxo-2,3-dihydro-1H-benzo[d]imidazol-5-yl)-N-(3-fluoro-2-methylphenyl)acrylamide]: the inhibition at 20 min, 1 µM against CYP2D6 was found to be 0.7%. In addition, the hepatocyte CLint at 1 µM in data set [1] was 17.4 µL/min/1e6 cells.

`Cc1n[nH]c2cc(/C=C/C(=O)NC3CCc4ccccc43)ccc12` (centres unmarked) [Example 25, (E)-N-(2,3-dihydro-1H-inden-1-yl)-3-(3-methyl-1H-indazol-6-yl)acrylamide]: at CYP2D6, the IC50 turned out to be 13.8 µM and the inhibition at 20 min, 1 µM was 2.05%. In addition, the hepatocyte CLint at 1 µM in data set [1] stood at 21.8 µL/min/1e6 cells.

`Cc1ccc(F)c(C)c1NC(=O)/C=C/c1ccc2c(c1)[nH]c(=O)n2C` [Example 30, (E)-N-(3-fluoro-2,6-dimethylphenyl)-3-(1-methyl-2-oxo-2,3-dihydro-1H-benzo[d]imidazol-5-yl)acrylamide]: the inhibition at 20 min, 1 µM against CYP2D6 was -3.33%. Further, in data set [1], the hepatocyte CLint at 1 µM worked out at 18.1 µL/min/1e6 cells.

Take `Cc1c(F)cccc1NC(=O)/C(F)=C/c1ccc2c(c1)NC(=O)C2` [Example 47, (Z)-2-fluoro-N-(3-fluoro-2-methylphenyl)-3-(2-oxoindolin-6-yl)acrylamide]: on CYP2D6, the inhibition at 20 min, 1 µM amounted to 1.91%. Besides, the hepatocyte CLint at 1 µM in data set [1] stood at 4.78 µL/min/1e6 cells.

Take `CO[C@H]1Cc2ccccc2[C@@H]1NC(=O)/C=C/c1ccc2c(C)n[nH]c2c1` [Example 54, (E)-N-((1S,2S)-2-methoxy-2,3-dihydro-1H-inden-1-yl)-3-(3-methyl-1H-indazol-6-yl)acrylamide]: the inhibition at 20 min, 1 µM at CYP2D6 is 8.2%. Besides, the hepatocyte CLint at 1 µM in data set [1] turned out to be 10.8 µL/min/1e6 cells.

For the compound `CO[C@H]1Cc2ccccc2[C@@H]1NC(=O)/C=C/c1ccc2c(F)n[nH]c2c1` [Example 73, (E)-3-(3-fluoro-1H-indazol-6-yl)-N-((1S,2S)-2-methoxy-2,3-dihydro-1H-Inden-1-yl)acrylamide], at CYP2D6, the inhibition at 20 min, 1 µM came out at 34.6%. Besides, the hepatocyte CLint at 1 µM in data set [1] came to 7.7 µL/min/1e6 cells.
